Source: PMC7811808, “Design, synthesis, and biological evaluation of novel 5,6,7-trimethoxy quinolines as potential anticancer agents and tubulin polymerization inhibitors” (Iranian Journal of Basic Medical Sciences, 2020)
Like-named read-outs stand apart in the source and are kept apart here.

Columns and labels:
[1] = test system: A2780/RCIS; experiment: MTT antiproliferative activity assay; assay type: cell-based; settings: Homo sapiens, read-out: IC50 A2780/RCIS
Protocol: (§1) The MTT assay was done by seeding 5.0×10^3 human cancer cells or normal cells per well in 96-well plates ([34]-[36]). Following overnight incubation of the cells in 5% CO2 at 37 °C, culture medium of each well was exchanged with medium having reference anti-cancer agent CA-4 as well as different concentrations of synthesized compounds and RPMI (no drug) negative control and cells were incubated 48 hr. Then MTT solution (25 μl, 4 mg ml ^-1) was added to each well and the cells were incubated at 37 °C (for 3 hr). Finally, formazan crystals were dissolved in DMSO (100 μl) and plates were read in a plate reader (Synergy H4, USA) at 540 nm. The cytotoxic activity of the synthesized compounds was evaluated against different human cancer cell lines including […]-7 and MCF-7/MX, and normal cells by MTT assay. Combretastatin A-4 (CA-4) was used as the positive control.

[2] = test system: A2780; experiment: MTT antiproliferative activity assay; assay type: cell-based; settings: Homo sapiens, 48 hr
Protocol: as §1

[3] = test system: MCF-7/MX; experiment: MTT antiproliferative activity assay; assay type: cell-based; settings: Homo sapiens, MCF7/MX, read-out: IC50 MCF-7/MX
Protocol: as §1

[4] = test system: MCF-7; experiment: MTT antiproliferative activity assay; assay type: cell-based; settings: Homo sapiens, MCF7, 48 hr
Protocol: as §1

[5] = test system: HUVEC; experiment: MTT assay on normal cells; assay type: cell-based; settings: Homo sapiens, 48 hr
Protocol: as §1

[6] = test system: A2780, A2780/RCIS, MCF-7 and MCF-7/MX; experiment: MTT assay, statements over all four cancer cell lines; assay type: cell-based; settings: Homo sapiens, range over four cell lines, read-out: IC50 values range against all four human cancer cells
Protocol: as §1

[7] = biological target: T1, tubulin (Sus scrofa, UniProt P02550+P02554); experiment: In vitro tubulin polymerization assay (fluorescence kit); assay type: biochemical; settings: compound 20 µM; CA-4 5 µM
T1 construct: purchased cytoskeleton BK011P
T1 sequence (P02550 whole entry): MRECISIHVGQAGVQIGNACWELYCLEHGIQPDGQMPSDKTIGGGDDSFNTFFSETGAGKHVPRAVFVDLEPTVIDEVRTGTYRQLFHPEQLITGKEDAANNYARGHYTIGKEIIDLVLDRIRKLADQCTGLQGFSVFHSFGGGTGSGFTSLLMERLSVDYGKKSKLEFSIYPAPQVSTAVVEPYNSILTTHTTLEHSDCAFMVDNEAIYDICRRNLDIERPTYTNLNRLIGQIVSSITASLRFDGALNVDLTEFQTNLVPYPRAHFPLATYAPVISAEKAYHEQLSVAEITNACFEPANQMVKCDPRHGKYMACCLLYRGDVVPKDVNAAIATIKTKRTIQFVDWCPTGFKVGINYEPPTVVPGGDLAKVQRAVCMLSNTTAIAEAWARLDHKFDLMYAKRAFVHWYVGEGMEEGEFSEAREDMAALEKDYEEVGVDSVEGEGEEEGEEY
T1 sequence (P02554 whole entry): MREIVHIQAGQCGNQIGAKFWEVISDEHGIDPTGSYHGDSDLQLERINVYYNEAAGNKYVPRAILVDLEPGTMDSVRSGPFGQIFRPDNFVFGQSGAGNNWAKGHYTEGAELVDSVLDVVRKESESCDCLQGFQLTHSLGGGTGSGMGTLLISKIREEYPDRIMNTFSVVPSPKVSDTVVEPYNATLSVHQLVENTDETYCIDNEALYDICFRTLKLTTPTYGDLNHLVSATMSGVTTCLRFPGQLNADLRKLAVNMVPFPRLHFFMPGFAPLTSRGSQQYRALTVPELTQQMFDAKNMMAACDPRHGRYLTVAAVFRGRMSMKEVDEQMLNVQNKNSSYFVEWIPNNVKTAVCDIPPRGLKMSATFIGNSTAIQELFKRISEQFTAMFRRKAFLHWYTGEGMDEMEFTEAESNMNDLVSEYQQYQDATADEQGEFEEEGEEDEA
Protocol: A commercial kit (cytoskeleton, cat. #BK011P) was used to evaluate the tubulin polymerization inhibition activity of compounds ([37]). Briefly, tubulin protein was added to tubulin buffer (80 mM PIPES, 2 mM MgCl2, 0.5 mM EGTA, 1 mM GTP, […], PH 6.9) and the acquired mixture was added to wells of a 96-well plate comprising the cytotoxic compounds or vehicle. Tubulin polymerization was observed by detecting the fluorescence augmentation due to the addition of a fluorescence reporter into microtubules as polymerization occurred. Polymerization was measured by excitation at 360 nm and emission at 420 nm for 1 hr at 1 min intervals in a plate reader (Synergy H4, USA). CA-4 (5 μM) and paclitaxel (3 μM) were used as positive destabilizing and positive stabilizing controls, respectively.
In order to check if the cytotoxic activity of our quinolines was correlated to their ability to inhibit tubulin, compounds 7e and 7f and CA4 (polymerization suppressor) and paclitaxel (polymerization promoter) were assessed for their activity in a microtubule polymerization assay.

[8] = test system: A2780 cancer cells; experiment: Cell cycle analysis by flow cytometry (PI); assay type: cell-based, human; settings: 48 hr
Description: (§2) Flow cytometry with propidium iodide (PI) was used to analyze the cell numbers in the cell cycle phases. […] Flowjo software 7.6 was used to analyze the data regarding the cell numbers in different phases of the cell cycle.
(§3) Tubulin inhibitors arrest cell cycle at the G2/M phase in cancer cells owing to destruction of the microtubular cytoskeleton. To get more understanding of the mechanism of action, the effects of compounds 7f and 7e on the cell cycle were examined by ﬂow cytometry in four human cancer cell lines (MCF-7, MCF-7/MX, A2780, and A2780/RCIS). […] When A2780 cancer cells were treated with 7f and 7e for 48 hr, the percentage of cells in the G2/M phase was 15.70% (7f, 1 μM), 17.74% (7f, 10 μM), 23.30% (7e, 5μM), and 4.15% (7e, 15μM) compared with the negative control (4.84%). Moreover, the percentage of A2780 cancer cells in the subG1 phase was 18.58% (7f, 10 μM) and 68.16% (7e, 15 μM).

[9] = test system: A2780/RCIS cancer cells; experiment: Cell cycle analysis by flow cytometry (PI); assay type: cell-based, human; settings: 48 hr
Description: as §2, §3

[10] = test system: MCF-7 cancer cells; experiment: Cell cycle analysis by flow cytometry (PI); assay type: cell-based, human; settings: 48 hr
Description: as §2, §3

[11] = test system: MCF-7/MX cancer cells; experiment: Cell cycle analysis by flow cytometry (PI); assay type: cell-based, human; settings: 48 hr
Description: as §2, §3

[12] = test system: A2780 cells; experiment: Apoptosis assay (Annexin V/PI staining); assay type: cell-based, human; settings: 24 hr
Protocol: A2780 cells ([…]) were seeded in six-well plates and incubated overnight. Then the medium was replaced with a complete medium containing compound 7e (3 and 15 µM concentrations). After 24 hr incubation, the cells were […] and washed with PBS and incubated with buffer including 10 mM HEPES, 140 mM NaCl, and 2.5 mM CaCl2 (pH 7.4) and also PI and annexin V-FITC at room temperature (20 min) ([38]). The samples were analyzed using a flow cytometer (Beckman Coulter), and the results were assessed using the Flowjo software.
Then, to investigate the mode of cell death caused by 7e, flow cytometry was done using propidium iodide (PI) ([19]), which only colors DNA and only enter dead cells, and Annexin-V (the fluorescence probe), which binds to the early apoptotic cells selectively ([20]).

| Structure (SMILES) | IC50 [2] | IC50 [4] | IC50 ([1]; A2780, MTT, 48 hr) | IC50 ([3]; MTT, 48 hr) | melting point | IC50 [5] | further results |
| --- | --- | --- | --- | --- | --- | --- | --- |
| COc1ccc(/C=C\c2cc(OC)c(OC)c(OC)c2)cc1O [CA-4, Combretastatin A-4, reference compound] | 0.249 ± 0.091 µM | 0.438 ± 0.15 µM | – | – | – | 0.565 ± 0.26 µM | IC50 ([1]; A2780, 48 h): 0.229 ± 0.11 µM; IC50 ([3]; 48 h): 1.49 ± 0.27 µM |
| COc1ccc(Nc2cc(C)nc3cc(OC)c(OC)c(OC)c23)cc1 [Compound 7a, 5,6,7-Trimethoxy-N-(4-methoxyphenyl)-2-methylquinolin-4-amine] | 16.4 ± 2.13 µM | 55.3 ± 5.37 µM | 29.9 ± 2.87 µM | 65.9 ± 4.42 µM | 191 to 194 °C | 55.9 ± 3.87 µM | – |
| COc1ccc(Nc2cc(C)nc3cc(OC)c(OC)c(OC)c23)cc1OC [Compound 7b, N-(3,4-dimethoxyphenyl)-5,6,7-trimethoxy-2-methylquinolin-4-amine] | 27.1 ± 3.25 µM | 63.7 ± 4.35 µM | 51.5 ± 4.86 µM | 62.8 ± 5.27 µM | 182 to 185 °C | > 100 µM | – |
| COc1cc(Nc2cc(C)nc3cc(OC)c(OC)c(OC)c23)cc(OC)c1OC [Compound 7c, 5,6,7-Trimethoxy - 2-methyl - -N-(3,4,5-methoxyphenyl) quinolin-4-amine] | 80.2 ± 5.23 µM | > 100 µM | > 100 µM | 69.8 ± 4.85 µM | 175 to 178 °C | > 100 µM | – |
| COc1ccc(Nc2cc(C)nc3cc(OC)c(OC)c(OC)c23)cc1O [Compound 7d, 2-Methoxy-5-((5,6,7-trimethoxy-2-methylquinolin-4-yl)amino)phenol] | 29.6 ± 2.98 µM | 53.6 ± 3.66 µM | 44.7 ± 2.76 µM | 78.2 ± 5.37 µM | 182 to 184 °C | 62.7 ± 5.42 µM | – |
| COc1cc2nc(C)cc(Nc3ccc(C(=O)c4ccccc4)cc3)c2c(OC)c1OC [Compound 7e] | 11.3 ± 1.47 µM | 33 ± 2.51 µM | 6.66 ± 1.35 µM | 10.9 ± 1.28 µM | – | > 100 µM | IC50 [6]: 5.02 to 35.8 µM; tubulin polymerization inhibition [7]: inhibited tubulin polymerization in a way similar to that of CA-4; G2/M ([8]; A2780, 5 μM): 23.30%; G2/M ([8]; A2780, 15 μM): 4.15%; SubG1 ([8]; A2780, 15 μM): 68.16%; G2/M ([9]; 1 μM): 24.91%; G2/M ([9]; 5 μM): 25.93%; G2/M ([10]; MCF-7, 20 μM): 25.91%; G2/M ([10]; MCF-7, 30 μM): 34.45%; G2/M ([11]; 1 μM): 25.41%; G2/M ([11]; 10 μM): 37.85%; total apoptotic cells including early and late apoptotic cells ([12]; A2780, 3 µM): 8.02%; total apoptotic cells including early and late apoptotic cells ([12]; A2780, 15 µM): 28.57% |
| COc1cc2nc(C)cc(Nc3ccc(Oc4ccccc4)cc3)c2c(OC)c1OC [Compound 7f, 5,6,7-Trimethoxy-2-methyl-N-(4-phenoxyphenyl)quinolin-4-amine] | 8.43 ± 1.85 µM | 10.1 ± 1.63 µM | 5.02 ± 1.14 µM | 9.04 ± 1.2 µM | 192 to 195 °C | 8.9 ± 1.26 µM | IC50 [6]: 5.02 to 35.8 µM; tubulin polymerization inhibition [7]: inhibited tubulin polymerization in a way similar to that of CA-4; G2/M ([8]; A2780, 1 μM): 15.70%; G2/M ([8]; A2780, 10 μM): 17.74%; SubG1 ([8]; A2780, 10 μM): 18.58%; G2/M ([9]; 1 μM): 20.68%; G2/M ([9]; 5 μM): 19.38%; G2/M ([10]; MCF-7, 1 μM): 19.01%; G2/M ([10]; MCF-7, 10 μM): 24.01%; G2/M ([11]; 10 μM): 23.73%; G2/M ([11]; 20 μM): 29.37% |
| COc1cc2nc(C)cc(Nc3ccccc3Oc3ccccc3)c2c(OC)c1OC [Compound 7g, 5,6,7-Trimethoxy-2-methyl-N-(2-phenoxyphenyl)quinolin-4-amine] | 12.1 ± 2.17 µM | 35.8 ± 3.29 µM | 10.1 ± 2.25 µM | 16.3 ± 2.39 µM | 150 to 153 °C | 27.7 ± 2.63 µM | IC50 [6]: 5.02 to 35.8 µM |

The next lines start with results.

| IC50 [2] | IC50 [4] | IC50 ([1]; A2780, MTT, 48 hr) | IC50 ([3]; MTT, 48 hr) | melting point | Structure (SMILES) | IC50 [5] | further results |
| --- | --- | --- | --- | --- | --- | --- | --- |
| 30.5 ± 3.22 µM | 63.7 ± 5.27 µM | 46.2 ± 3.57 µM | 64.6 ± 5.29 µM | 110 to 113 °C | COc1cc2nc(/C=C/c3ccccc3)cc(Cl)c2c(OC)c1OC [Compound 9a, E-4-Chloro-5,6,7-trimethoxy-2-styrylquinoline] | 74 ± 5.95 µM | – |
| > 100 µM | > 100 µM | > 100 µM | > 100 µM | 153 to 155 °C | COc1cc2nc(/C=C/c3ccc(C)cc3)cc(Cl)c2c(OC)c1OC [Compound 9b, E-4-Chloro-5,6,7-trimethoxy-2-(4-methylstyryl)quinoline] | > 100 µM | – |
| > 100 µM | > 100 µM | > 100 µM | > 100 µM | 173 to 176 °C | COc1cc2nc(/C=C/c3ccc(F)cc3)cc(Cl)c2c(OC)c1OC [Compound 9c, E-4-Chloro-5,6,7-trimethoxy-2-(4-fluorostyryl)quinoline] | > 100 µM | – |
| 39.9 ± 3.74 µM | 42.8 ± 3.48 µM | 33.8 ± 3.48 µM | 44.1 ± 3.57 µM | – | COc1ccc(/C=C/c2cc(Cl)c3c(OC)c(OC)c(OC)cc3n2)cc1 [Compound 9d, E-4-Chloro-5,6,7-trimethoxy-2-(4-methoxystyryl)quinoline] | 96.2 ± 5.38 µM | – |
| > 100 µM | > 100 µM | > 100 µM | > 100 µM | 122 to 124 °C | COc1ccc(/C=C/c2cc(Cl)c3c(OC)c(OC)c(OC)cc3n2)cc1OC [Compound 9e, E-4-Chloro-5,6,7-trimethoxy-2-(3,4-dimethoxystyryl)quinoline] | > 100 µM | – |
| 47.9 ± 4.25 µM | > 100 µM | 11.7 ± 2.63 µM | 28 ± 2.64 µM | 163 to 165 °C | COc1cc(/C=C/c2cc(Cl)c3c(OC)c(OC)c(OC)cc3n2)cc(OC)c1OC [Compound 9f, E-4-Chloro-5,6,7-trimethoxy-2-(3,4,5-trimethoxystyryl)quinoline] | > 100 µM | – |
| > 100 µM | > 100 µM | > 100 µM | > 100 µM | 162 to 164 °C | COc1cc2nc(/C=C/c3ccc([N+](=O)[O-])cc3)cc(Cl)c2c(OC)c1OC [Compound 9g, E-4-Chloro-5,6,7-trimethoxy-2-(4-nitrostyryl)quinoline] | > 100 µM | – |
